pEC50, pIC50: −log10 of the molar value.
Experiments:
Adrenergic α1B = target: T1, Adrenergic α1B (Homo sapiens, UniProt P35368); assay: Aequorin assay, Adrenergic α1B; assay type: cell-based; conditions: antagonism, CHO-K1 mAeq, read-out: Activity (Antagonism: IC50), Adrenergic a1B
T1 construct: expressed in transfected cells; host or cells: CHO-K1 mAeq
Description: (§1) Receptor […] activity assays were performed using 8′OH-2-CF3-dihydroergotamine (8′OH-2-CF3-DHE). Table 1 summarizes the cell lines (CHO-K1/HEK293 transfected with relevant human receptor) and the assays performed to detect any agonist or antagonist activity.
Aequorin assays were conducted to monitor activity for 8′OH-2CF3-dihydroergotamine (8′OH-2CF3-DHE) against the receptors indicated in Table 1 above (except for mGlu3 and mGlu5). CHO-K1 cells coexpressing mitochondrial apoaequorin and the recombinant human receptor of interest were grown to mid-log phase in culture media without antibiotics and then detached with PBS-EDTA, centrifuged and resuspended in assay buffer (DMEM/HAM's F12 with HEPES, without phenol red+0.1% BSA, protease free) at a concentration of 1×10^6 cell/mL. […]
50 μL of the cell suspension was mixed with 50 μL of test or reference agonist in a 96-well plate. The resulting emission of light was recorded using Hamamatsu Functional Drug Screening System 6000 (FDSS 6000) luminometer. […]
To standardize the emission of recorded light (and determine of the “100% signal”) across plates and across different experiments, some wells contained 100 μM digitonin or a saturating concentration of ATP (20 μM).

Adrenergic α2A = target: T2, Adrenergic α2A (Homo sapiens, UniProt P08913); assay: GTPγ[35S] assay, Adrenergic α2A; assay type: biochemical; conditions: antagonism, CHO-K1 membranes, read-out: Activity (Antagonism: IC50), Adrenergic a2A
T2 construct: expressed in transfected cells; host or cells: CHO-K1 (membrane extracts)
T2 sequence (P08913 whole entry): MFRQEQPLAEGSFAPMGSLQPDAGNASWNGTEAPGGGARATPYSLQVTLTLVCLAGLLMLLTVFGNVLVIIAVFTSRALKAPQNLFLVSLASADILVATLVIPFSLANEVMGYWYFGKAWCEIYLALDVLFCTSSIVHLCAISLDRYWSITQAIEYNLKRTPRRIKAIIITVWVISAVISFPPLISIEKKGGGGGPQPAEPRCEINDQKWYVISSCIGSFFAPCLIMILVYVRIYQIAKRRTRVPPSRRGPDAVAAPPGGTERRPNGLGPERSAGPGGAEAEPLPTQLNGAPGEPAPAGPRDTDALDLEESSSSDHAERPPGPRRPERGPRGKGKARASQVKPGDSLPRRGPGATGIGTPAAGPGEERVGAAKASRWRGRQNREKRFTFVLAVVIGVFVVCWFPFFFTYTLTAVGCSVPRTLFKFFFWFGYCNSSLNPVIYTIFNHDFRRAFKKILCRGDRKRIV
Description: as §1
(§2) GTPγS studies were conducted to monitor agonist activity for 8′OH-2CF3-dihydroergotamine (8′OH-2CF3-DHE) against the receptors indicated in Table 1 above. Reagents used were the following: Assay buffer (20 mM HEPES, pH 7.4; 100 mM NaCl; 10 μg/mL saponin; 30 mM MgCl2); Membranes (recombinant human receptor membrane extracts were thawed on ice and diluted in assay buffer to give 1000 μg/mL ([…]) and kept on ice); GDP (diluted in assay buffer to give 30 μM solution (3 μM final concentration); beads (PVT-WGA (Amersham, RPNQ001), diluted in assay buffer at 25 mg/mL (0.25 mg/10 μL)); GTPγ^35S (Perkin Elmer, NEG030X), diluted in assay buffer to give 0.1 nM (final concentration); and ligand (agonist/antagonist diluted in assay buffer).
(§3) Membranes were mixed with GDP (1:1) and incubated for at least 15 minutes on ice. In parallel GTPγ^35S was mixed with the beads (1:1) just before starting the reaction. […] The plates were then centrifuged for 10 minutes at 2000 rpm and incubated at room temperature for 1 hour and counted for 1 min/well with a Perkin Elmer TopCount reader.

Dopamine D3 = target: T3, Dopamine D3 (Homo sapiens, UniProt P35462); assay: GTPγ[35S] assay, Dopamine D3; assay type: biochemical; conditions: agonism, CHO-K1 membranes
T3 construct: expressed in transfected cells; host or cells: CHO-K1 (membrane extracts)
T3 sequence (P35462 whole entry): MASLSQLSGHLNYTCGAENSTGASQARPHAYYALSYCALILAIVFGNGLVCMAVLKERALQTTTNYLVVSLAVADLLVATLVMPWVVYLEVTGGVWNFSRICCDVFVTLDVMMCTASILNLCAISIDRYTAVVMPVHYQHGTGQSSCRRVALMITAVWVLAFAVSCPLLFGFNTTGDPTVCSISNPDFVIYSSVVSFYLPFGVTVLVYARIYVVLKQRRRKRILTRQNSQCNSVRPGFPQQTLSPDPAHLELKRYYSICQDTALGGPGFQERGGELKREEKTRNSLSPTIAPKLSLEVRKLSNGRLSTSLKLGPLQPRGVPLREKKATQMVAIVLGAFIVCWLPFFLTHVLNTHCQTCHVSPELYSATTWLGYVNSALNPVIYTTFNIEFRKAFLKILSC
Description: as §1, §2, §3

Serotonin 5-HT1B = target: T4, Serotonin 5-HT1B (Homo sapiens, UniProt P28222); assay: GTPγ[35S] assay, Serotonin 5-HT1B; assay type: biochemical; conditions: agonism, CHO-K1 membranes
T4 construct: expressed in transfected cells; host or cells: CHO-K1 (membrane extracts)
T4 sequence (P28222 whole entry): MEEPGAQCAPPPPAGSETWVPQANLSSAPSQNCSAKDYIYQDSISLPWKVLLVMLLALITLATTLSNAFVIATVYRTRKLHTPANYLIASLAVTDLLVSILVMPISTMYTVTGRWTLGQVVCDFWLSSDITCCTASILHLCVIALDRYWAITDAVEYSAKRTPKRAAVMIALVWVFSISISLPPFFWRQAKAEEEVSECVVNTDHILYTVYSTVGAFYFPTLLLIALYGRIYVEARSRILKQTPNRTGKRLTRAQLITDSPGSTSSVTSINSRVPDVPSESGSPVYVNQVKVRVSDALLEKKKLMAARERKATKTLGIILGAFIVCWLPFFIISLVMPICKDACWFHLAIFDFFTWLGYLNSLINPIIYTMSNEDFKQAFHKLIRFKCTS
Description: as §1, §2, §3

[1] = test system: Purinergic (P2X1/P2X2/P2X3/P2X4/P2X7); assay: Purinergic receptor QPatch patch clamp study; assay type: cell-based, human; conditions: HEK293, QPatch HT, agonist and antagonist modes at 10 and 30 μM
Description: Purinergic receptor studies were conducted to monitor activity for 8′OH-2CF3-dihydroergotamine (8′OH-2CF3-DHE) against the P2X1, P2X2, P2X3, P2X4 and P2X7 receptors. Human recombinant purinergic receptor expressing HEK293 cells were used and receptor activity was evaluated at room temperature using QPatch HT® (Sophion Bioscience A/S, Denmark) automatic parallel patch clamp system. 8′OH-2CF3-DHE was evaluated in both agonist and antagonist modes at 10 and 30 μM. Each concentration was tested in triplicates.

T1 sequence (P35368 whole entry): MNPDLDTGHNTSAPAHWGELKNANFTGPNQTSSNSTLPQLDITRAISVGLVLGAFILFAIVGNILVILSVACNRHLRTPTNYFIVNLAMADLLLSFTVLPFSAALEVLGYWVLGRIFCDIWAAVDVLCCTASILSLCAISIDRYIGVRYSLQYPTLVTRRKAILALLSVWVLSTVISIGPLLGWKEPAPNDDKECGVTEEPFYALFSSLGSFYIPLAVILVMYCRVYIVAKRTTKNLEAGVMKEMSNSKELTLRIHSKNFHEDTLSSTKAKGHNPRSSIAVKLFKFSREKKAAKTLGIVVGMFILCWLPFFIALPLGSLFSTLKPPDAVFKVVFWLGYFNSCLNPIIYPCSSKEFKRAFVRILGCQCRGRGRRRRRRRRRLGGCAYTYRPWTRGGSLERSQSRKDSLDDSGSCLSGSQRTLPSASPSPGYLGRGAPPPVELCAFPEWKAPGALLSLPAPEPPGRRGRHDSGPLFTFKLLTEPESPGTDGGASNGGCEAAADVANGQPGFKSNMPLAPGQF

SMILES: CN1C[C@H](C(=O)N[C@]2(C)O[C@@]3(O)[C@@H]4CC[C@@H](O)N4C(=O)[C@H](Cc4ccccc4)N3C2=O)C[C@@H]2c3cccc4[nH]c(C(F)(F)F)c(c34)C[C@H]21 [8′OH-2-CF3-DHE, 8′-Hydroxy-2-CF3-dihydroergotamine]
- pIC50 (Adrenergic α1B): 7.96
- pIC50 (Adrenergic α2A): 6.83
- pEC50 (Dopamine D3): 7.49
- pEC50 (Serotonin 5-HT1B): 6.39
- Activity (Agonism: EC50; Antagonism: IC50), Purinergic (P2X1/P2X2/P2X3/P2X4/P2X7) [1]: Inactive

Source: US20150238487A1, “NOVEL ERGOLINE DERIVATIVES AND USES THEREOF” (MAP Pharmaceuticals, Inc., priority 2012, published 2015)
